Like-named read-outs stand apart in the source and are kept apart here.
Columns and labels:
[1] = ferric ion reducing antioxidant power (FRAP); details: Fe^3+-reducing activity
Procedure: Iron is one of the vital elements for all parasites, including trypanosomes, as it plays a key role in pathogenesis and the host immune response. Therefore, iron bioavailability reducing agents to the parasite could be potential candidates for drug development against trypanosomiasis. To this end, we determined the capacity of the test compounds to reduce iron from ferric to ferrous status using the method described by Benzie et al.. Briefly, 25 µL of each compound (7 and 10) was added to 25 µL of a solution of Fe^3+ prepared at 1.2 mg/mL in distilled water in a 96-well microplate. The plate was incubated for 15 min at room temperature in darkness, after which 50 µL of ortho-phenanthroline (0.2% in methanol) was added to achieve final compound concentrations ranging from 400 µM to 0.19 µM. Plates were reincubated for 15 min, and the absorbance was measured at 510 nm. Ascorbic acid was used as a positive control and tested at concentrations ranging from 100 to 0.048 μg/mL. The median reducing concentration (RC50) values of compounds were determined through sigmoidal concentration–response curves using GraphPad Prism version 8.0 software.

[2] = test system: trypanosomes; assay: intracellular ROS production (DCFDA); assay type: cell-based, Trypanosoma brucei brucei; details: 120 min; versus untreated parasites
Procedure: The production of ROS was detected using a 2′,7′–dichlorofluorescein diacetate (DCFDA) probe (Sigma–Aldrich) as described by Rea et al.. […] DCFDA (100 µL, 5 µM) was then added to the parasites, and incubation was pursued for 15 min at 37 °C. Hydrogen peroxide (H2O2 0.1% v/v) was used as a positive control for maximal ROS production, and wells with untreated parasites were included as a negative control. Of note, DCFDA is cleaved by ROS to produce fluorescent 2′,7′-dichlorofluorescein (DCF), of which the fluorescence intensity was measured at λex = 485 nm and λem = 520 nm. Data obtained from duplicate readouts were used to determine the ROS production percentage relative to the positive control (100% Production). % ROS production = (OD Test/OD control(H2O2)) × 100

[3] = test system: bloodstream form of Trypanosoma brucei brucei; assay: parasite-killing kinetics and cidal or static effect; assay type: cell-based; details: for cidal or static effect after inhibitor removal: IC90 and IC99, removal at 4 h (10) or 24 h (7), subculture in inhibitor-free medium; for time to total inhibition of trypanosome growth: at IC99
Procedure: Thus, they were selected, and their effect at various concentrations was assessed on the proliferation rate of the bloodstream form of Trypanosoma brucei brucei using microscopic cell count. […] After specified exposure time intervals (0, 4, 8, 12, 24, 30, 36, 48, 60, 72 h), the content of each well was harvested and counted on a Neubauer hemacytometer to determine the number of mobile parasites. The obtained values were used to plot the growth curves as parasite density (cells/mL) versus incubation time using GraphPad Prism 8.0 software.
Therefore, the ability of parasites to recover post exposure to inhibitors 10 and 7 was further evaluated. […] After that, the cells were washed three times with fresh complete medium by centrifugation at 2500 rpm for 7 min. Cell pellets were thereafter resuspended in fresh complete culture medium in a 24-well plate and subcultured under the same conditions for 68 h for compound 10 and 48 h for compound 7 to achieve the complete parasite growth pattern. Thereafter, cells were enumerated using the Neubauer cell counter at each time point. The assay was performed in duplicate, and the mean cell counts were plotted […] against time using GraphPad Prism 8.0 to assess the cidal or static effect of inhibitors.

[4] = test system: bloodstream forms of Trypanosoma brucei brucei; assay: resazurin-based antitrypanosomal inhibition assay; assay type: cell-based; details: Trypanosoma brucei
[5] = test system: bloodstream forms of Trypanosoma brucei brucei; assay: cellular DNA fragmentation ELISA (apoptosis or cytolysis); assay type: cell-based; details: 4 h; for apoptotic DNA fragmentation: lysate, at IC50
Procedure: Basically, this assay tends to quantify apoptotic cell death by detection of […] dye-labeled DNA fragments in the cytoplasm of affected cells or to measure cell-mediated cytotoxicity by detection of dye-labeled DNA fragments released from damaged cells into the culture supernatant. […] BrdU-labeled parasites were harvested (by spinning at 2500 rpm for 7 min) followed by centrifugal washing using BrdU-free HMI-9 medium. […] The plate was then centrifuged at […] for 7 min, and the pellets were collected and kept at 4 °C until further use. For cytolysis measurement, the supernatants were added to a microplate coated with anti-DNA antibody to allow DNA capture from the test samples. The captured DNA fragments were subsequently denatured using microwave irradiation (LG NeoChef Charcoal Healthy Ovens) at 500 W for 5 min to separate DNA strands in view of displaying the BrdU. Thereafter, an anti-BrdU-antibody-POD (peroxidase) conjugate was added to detect the BrdU contained in the captured DNA fragments.
For apoptosis measurement, the cell pellets from each well were resuspended in 200 µL of the kit’s incubation buffer and incubated for 30 min. The lysed cells were centrifuged at […] for 10 min, and the supernatants were used as described above. Triton X-100 (Sigma Aldrich) was used as a positive control for both apoptosis and cell-mediated cytotoxicity. The absorbance values were proportionally correlated to the amount of DNA fragments in the treated cultures. Data are expressed as the mean ± SD of two independent experiments performed in duplicate and compared to the negative control (untreated parasites) at a significance level of p < 0.05.

[6] = Table 4, analogs of MMV675968, solid material, read-out: IC50 ± SD T. b. b.
[7] = Table 4, negative log of IC50 in molar, read-out: pIC50 T. b. b. (converted)

Compound | median reducing concentration (RC50) [1] | change in ROS production [2] | cidal or static effect after inhibitor removal [3] | time to total inhibition of trypanosome growth [3] | IC50 [4, 6] | IC50 [4, 7] | induction of cell lysis (cytolysis) ([5]; culture supernatant) | apoptotic DNA fragmentation [5]
COc1ccccc1NCc1ccc2nc(N)nc(N)c2c1 [Analog 7, 6-(((2-methoxyphenyl)amino)methyl)quinazoline-2,4-diamine] | 96.37 µM | no significant change | static effect | ≤ 24 h | 60 ± 8 nM | 60.3 nM | did not exert any effect | did not exert any effect
Nc1nc(N)c2cc(CNc3cc(Cl)ccc3Cl)ccc2n1 [Analog 10, 6-(((2,5-dichlorophenyl)amino)methyl)quinazoline-2,4-diamine] | > 400 µM | no significant change | cidal effect | ≤ 4 h | 45 ± 5 nM | 45.7 nM | – | significant inducing effect

Reference: article PMC9571290, “Preliminary Structure–Activity Relationship Study of the MMV Pathogen Box Compound MMV675968 (2,4-Diaminoquinazoline) Unveils Novel Inhibitors of Trypanosoma brucei brucei” (Molecules, 2022)
